Results on 65 substances are retold here after patent US20100099113A1, “MINIMIZED SMALL PEPTIDES WITH HIGH AFFINITY FOR FACTOR VIII AND FACTOR VIII-LIKE PROTEINS” (Technische Universitat Muenchen, priority 2006, published 2010).

Where no end group is shown, it is not given here. [ ]: non-standard residue; d: D form. Bpa = N[C@@H](Cc1ccc(C(=O)c2ccccc2)cc1)C(=O)O; 1Nal = N[C@@H](Cc1cccc2ccccc12)C(=O)O; Bta = N[C@@H](Cc1csc2ccccc12)C(=O)O; NMeY = CN[C@@H](Cc1ccc(O)cc1)C(=O)O; Phg = N[C@H](C(=O)O)c1ccccc1; Abu = CC[C@H](N)C(=O)O

For the experiment, the target named is T1, Plasma-derived (pd-) human Factor VIII (Homo sapiens, UniProt P00451).
T1 construct: from tissue; host or cells: human blood plasma (FVIII concentrate)
T1 sequence (P00451 20-1667 limits assumed): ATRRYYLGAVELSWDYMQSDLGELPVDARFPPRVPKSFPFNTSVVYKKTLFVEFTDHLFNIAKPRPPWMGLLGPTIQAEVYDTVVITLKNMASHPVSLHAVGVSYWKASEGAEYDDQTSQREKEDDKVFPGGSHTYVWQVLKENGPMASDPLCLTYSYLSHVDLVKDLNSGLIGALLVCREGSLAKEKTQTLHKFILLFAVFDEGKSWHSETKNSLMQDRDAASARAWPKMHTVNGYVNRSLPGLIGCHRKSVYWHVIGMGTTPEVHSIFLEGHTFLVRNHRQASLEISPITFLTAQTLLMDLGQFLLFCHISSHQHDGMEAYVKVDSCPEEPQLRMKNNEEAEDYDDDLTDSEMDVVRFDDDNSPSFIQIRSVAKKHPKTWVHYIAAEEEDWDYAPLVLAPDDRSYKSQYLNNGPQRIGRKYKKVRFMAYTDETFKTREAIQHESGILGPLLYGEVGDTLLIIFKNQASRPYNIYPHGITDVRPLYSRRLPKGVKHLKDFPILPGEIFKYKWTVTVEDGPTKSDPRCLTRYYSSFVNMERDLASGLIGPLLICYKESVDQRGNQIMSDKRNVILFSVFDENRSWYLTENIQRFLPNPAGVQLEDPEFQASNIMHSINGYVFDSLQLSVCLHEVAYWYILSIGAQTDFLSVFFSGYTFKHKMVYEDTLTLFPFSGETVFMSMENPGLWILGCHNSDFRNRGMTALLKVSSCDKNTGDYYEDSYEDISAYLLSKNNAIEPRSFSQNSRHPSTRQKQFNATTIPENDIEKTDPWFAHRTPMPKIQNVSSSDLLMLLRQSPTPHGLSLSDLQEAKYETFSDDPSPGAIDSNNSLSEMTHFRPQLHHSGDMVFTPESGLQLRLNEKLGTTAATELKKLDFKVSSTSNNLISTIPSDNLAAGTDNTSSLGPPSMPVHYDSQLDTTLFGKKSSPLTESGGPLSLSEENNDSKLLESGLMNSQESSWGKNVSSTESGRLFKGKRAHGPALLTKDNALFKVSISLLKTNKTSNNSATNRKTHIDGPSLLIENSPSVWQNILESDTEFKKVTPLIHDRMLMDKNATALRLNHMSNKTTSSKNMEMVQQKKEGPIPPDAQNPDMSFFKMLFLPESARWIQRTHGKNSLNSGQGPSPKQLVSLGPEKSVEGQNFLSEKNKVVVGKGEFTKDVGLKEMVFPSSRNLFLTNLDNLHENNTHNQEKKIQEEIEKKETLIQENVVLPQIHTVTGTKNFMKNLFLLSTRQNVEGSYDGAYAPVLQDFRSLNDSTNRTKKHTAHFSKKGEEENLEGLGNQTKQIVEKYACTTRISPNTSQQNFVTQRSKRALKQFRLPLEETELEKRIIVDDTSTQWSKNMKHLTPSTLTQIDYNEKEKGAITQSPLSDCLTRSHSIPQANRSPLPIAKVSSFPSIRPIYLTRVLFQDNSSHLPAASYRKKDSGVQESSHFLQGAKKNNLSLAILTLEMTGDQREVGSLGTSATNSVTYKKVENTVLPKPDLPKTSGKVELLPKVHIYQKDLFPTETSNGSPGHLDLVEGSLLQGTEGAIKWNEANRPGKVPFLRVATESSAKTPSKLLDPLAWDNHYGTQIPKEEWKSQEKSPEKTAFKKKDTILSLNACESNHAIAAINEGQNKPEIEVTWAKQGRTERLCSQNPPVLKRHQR
T1 sequence (P00451 1668-2351 limits assumed): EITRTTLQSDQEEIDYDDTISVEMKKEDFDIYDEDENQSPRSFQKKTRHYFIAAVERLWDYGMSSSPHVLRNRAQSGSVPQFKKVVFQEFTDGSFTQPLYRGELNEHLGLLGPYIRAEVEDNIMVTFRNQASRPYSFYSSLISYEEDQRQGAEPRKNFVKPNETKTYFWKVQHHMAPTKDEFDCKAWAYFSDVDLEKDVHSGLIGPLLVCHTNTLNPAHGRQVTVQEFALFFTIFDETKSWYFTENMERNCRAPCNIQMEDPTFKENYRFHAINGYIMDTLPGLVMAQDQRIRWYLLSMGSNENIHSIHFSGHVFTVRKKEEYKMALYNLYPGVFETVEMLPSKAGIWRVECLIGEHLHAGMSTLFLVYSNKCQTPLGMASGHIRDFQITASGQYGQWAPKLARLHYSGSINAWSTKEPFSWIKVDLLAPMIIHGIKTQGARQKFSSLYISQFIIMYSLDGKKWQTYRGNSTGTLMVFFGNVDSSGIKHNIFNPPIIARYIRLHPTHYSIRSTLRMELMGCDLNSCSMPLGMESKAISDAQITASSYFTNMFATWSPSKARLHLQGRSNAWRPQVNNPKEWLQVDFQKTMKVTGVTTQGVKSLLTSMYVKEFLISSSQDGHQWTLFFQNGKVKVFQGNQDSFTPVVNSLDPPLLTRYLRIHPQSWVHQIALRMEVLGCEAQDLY
Briefly: Binding of 125I-labeled pd-FVIII to peptide-coated Toyopearl resin (micro-beads assay). Conditions: for % Binding pdFVIII: peptide immobilized on Toyopearl AF-Epoxy-650M resin, 125I-pd-FVIII, 2 hours room temperature, percent of maximal achievable binding (anti-FVIII Mab 8860-coated resin), mean ± SD of four determinations. As to the method:
Peptides S1 to S84 were immobilized on the Toyopearl AF-Epoxy-650M resin (Tosoh Biosep) as described by Jungbauer et al. For immobilization, 2.5 mg of each peptide was dissolved in 0.25 mL of the immobilization buffer (0.2 M sodium bicarbonate, pH 10.3), and 0.036 g of the dry resin powder (corresponding to 0.125 mL of swollen resin) was added, followed by incubation of the mixture with gentle rotation for 48 hours. Upon incubation for 48 hours the resin was washed once with immobilization buffer, once with 1 M NaCl and then 3 times with binding buffer, and binding of ^125I-labeled pd-FVIII to the peptide-coated and control resin was tested. The coupling density of each peptide in each of the reported experiments was as mentioned in Table 1. The control 0.25 mL portion of the resin was similarly treated in parallel experiment in the absence of peptide and was subsequently used as a control (designated as Background) in ^125I-pd-FVIII binding experiments. ^125I-pd-FVIII Bound/Background ratios were calculated as the amount of ^125I-pd-FVIII, bound to an immobilized peptide, divided by that bound to uncoated control resin, prepared as described above. This ratio represents a Signal/Noise ratio for the micro-beads assay, since ^125I-pd-FVIII bound to peptide represents the signal value and ^125I-pd-FVIII bound to peptide-uncoated resin represents the background (noise) value.
Plasma-derived (pd-) human Factor VIII (FVIII) was purified from concentrate by immunoaffinity chromatography on an anti-FVIII monoclonal antibody column followed by subsequent concentration of pd-FVIII by ion-exchange chromatography using Resource Q HR5/5 column.
The resin with immobilized peptides was washed in the binding buffer (0.01 M Hepes, 0.1 M NaCl, 5 mM CaCl2, 0.01% Tween-80). Subsequently, the resin was diluted in the binding buffer as 1:7 slurry and aliquoted into Eppendorf tubes (40 μL per tube). ^125I-pd-FVIII (100000 cpm in 10 μL) was added to the tubes and the volume of the mixture was adjusted to 100 μL by adding 50 μL of the binding buffer containing 4% BSA to give a 2% final concentration of BSA. After 2 hours of incubation at room temperature on a rotator, the samples were washed 4 times in the binding. After each wash the tubes were centrifuged at 5000 rpm for 1 min in an Eppendorf microcentrifuge, supernatant was discarded, and the resin was re-suspended in the washing buffer, followed by centrifugation under the same conditions. After four washes the tubes with pellet without supernatant were counted for radioactivity. The resin without peptide was processed similarly to account for non-specific pd-FVIII binding to tubes and resin itself, and the radioactivity in this control tube was considered as a background value. Since ^125I-pd-FVIII contains the some fraction damaged during radiolabeling, binding was calculated as a percent of maximal achievable binding, determined in separate experiment with anti-FVIII Mab 8860-coated resin.
All the measurements were performed in duplicates. Each experiment was performed using two independently prepared immobilized peptide samples. The data presented in each table are the mean values of the four determinations: duplicate determination in the two assays performed with beads on which peptides were independently immobilized on the different days. The value of standard deviation of the above quadruplicate determinations (duplicate determinations in two independent experiments) were typically less than 10% of the measured values of ^125I-pd-FVIII binding to peptides.

[1] abbreviates: Table 2, peptides with C-terminal cysteine linker immobilized on Toyopearl AF-Epoxy-650M resin.
Where [2] appears, read: Table 3, hexapeptides with linker cysteine within the binding sequence.

With Ac-H-S-W-E-Y-C (Ac-HSWEYC) [S31], the “% Binding pdFVIII” value is listed as 48.9 ± 3.0%. The “% Binding Factor VIII” value under setting [1] worked out at 49%.

In the case of (N-Me)S-W-E-Y-C [S21], the “% Binding pdFVIII” value is 48.4 ± 3.7%.

Take Y-C-S-W-(N-Me)E-Y [S25]: the “% Binding pdFVIII” value is on record as 45.2 ± 2.5%.

Take Y-f-(N-Me)S-W-E-Y-C [S27]: the “% Binding pdFVIII” value came out at 57.5 ± 4.6%.

Ac-Y-C-S-W-E-Y (Ac-YCSWEY) [S9]: the “% Binding pdFVIII” value was 81.6 ± 2.8%. Also, the “% Binding Factor VIII” value under setting [2] was determined as 82%.

S-Phe(4-Cl)-E--Bpa-C [S66]: the “% Binding pdFVIII” value turned out to be 40.0 ± 2.5%.

Turning to S-Bip(4,4′)-E-Bpa-C [S64], the “% Binding pdFVIII” value came to 36.2 ± 1.5%.

With Y-F-(N-Me)S-W-E-Y-C [S22], the “% Binding pdFVIII” value was 47.6 ± 4.6%.

For YCS[Bpa]EY [S15], the “% Binding pdFVIII” value turned out to be 49.4 ± 2.2%.

Turning to y-d-w-v-c-y [S19], the “% Binding pdFVIII” value is on record as 73.4 ± 5.6%. Also, the “% Binding Factor VIII” value under setting [2] stood at 73%.

Take S-(2-Nal)-E-Bip(4,4′)-C [S63]: the “% Binding pdFVIII” value stood at 41.4 ± 1.2%.

With Y-C-A-W-E-Y (YCAWEY) [S81], the “% Binding pdFVIII” value stood at 72.1 ± 7.2%.

For the substance S-W-E-Bpa-C [S73], the “% Binding pdFVIII” value is 40.0 ± 2.8%.

Turning to y-e-w-v-c-y [S84], the “% Binding pdFVIII” value came out at 77.0 ± 4.2%.

EYHSWEYC [reference compound]: the “% Binding Factor VIII” value under setting [1] is given as 50%.

As to Y-c-S-W-E-Y [S6], the “% Binding pdFVIII” value is 55.8 ± 2.3%.

Regarding S-Bta-E-Bpa-C [S65], the “% Binding pdFVIII” value is given as 39.2 ± 2.4%.

Consider S-Bpa-E-Y-C [S71], for which the “% Binding pdFVIII” value is reported as 30.6 ± 0.4%.

Consider Y-C-S-W-E-(N-Me)Y [S26], for which the “% Binding pdFVIII” value was determined as 48.8 ± 3.1%.

For Y-homoC-S-W-E-Y [S5], the “% Binding pdFVIII” value was determined as 59.7 ± 3.8%.

Y-f-S-W-E-Y-C [S34]: the “% Binding pdFVIII” value is listed as 53.6 ± 2.7%. Further, under setting [1], the “% Binding Factor VIII” value was 54%.

Regarding Y-C-S-W-E-Y-NH2 (YCSWEY-NH2) [S1], the “% Binding pdFVIII” value was found to be 41.8 ± 3.2%.

Turning to Y-f-S-W-(N-Me)E-Y-C [S28], the “% Binding pdFVIII” value was determined as 65.1 ± 2.5%.

For the substance YHS[Bpa]EYC [S37], the “% Binding pdFVIII” value is recorded as 39.1 ± 1.2%.

Take YF[Abu]WEFC [S33]: the “% Binding pdFVIII” value is reported as 53.4 ± 5.3%. The “% Binding Factor VIII” value under setting [1] was 53%.

On to Ac-Y-C-T-W-D-Y (Ac-YCTWDY) [S14], for which the “% Binding pdFVIII” value came to 82.3 ± 1.4%.

Regarding c-y-e-w-s [S35], the “% Binding pdFVIII” value is 37.1 ± 1.0%.

On to Y-C-V-W-E-Y (YCVWEY) [S82], for which the “% Binding pdFVIII” value came to 94.1 ± 4.70%.

Turning to Y-C-T-W-E-Y (YCTWEY) [S10], the “% Binding pdFVIII” value was found to be 80.3 ± 1.3%. Moreover, the “% Binding Factor VIII” value under setting [2] turned out to be 80%.

As to S-Bpa-E-Bip(4,4′)-C [S59], the “% Binding pdFVIII” value was found to be 30.9 ± 2.1%.

Consider Y-C-S-(N-Me)W-E-Y [S70], for which the “% Binding pdFVIII” value is recorded as 72.2 ± 1.7%.

Consider H-S-W-E-Y-C (HSWEYC) [S29], for which the “% Binding pdFVIII” value was 54.4 ± 4.9%. In addition, the “% Binding Factor VIII” value under setting [1] was found to be 54%.

Consider Y-F-S-W-(N-Me)E-Y-C [S23], for which the “% Binding pdFVIII” value turned out to be 53.1 ± 0.3%.

As for Ac-S-W-E-Y-C [S30], the “% Binding pdFVIII” value turned out to be 42.6 ± 1.3%. For the same substance, the “% Binding Factor VIII” value under setting [1] amounted to 43%.

As for S-Bpa-E-Bpa-C [S61], the “% Binding pdFVIII” value is given as 1.1 ± 3.3%.

As to y-e-w-a-c-y [S83], the “% Binding pdFVIII” value is 53.6 ± 2.5%.

On to S-(1-Nal)-E-Bip(4,4′)-C [S62], for which the “% Binding pdFVIII” value is 38.6 ± 0.4%.

As for YHS[Bpa]E[Phg]C [S75], the “% Binding pdFVIII” value was found to be 28.1 ± 0.3%.

Consider (N-Me)Y-C-S-W-E-Y ([NMeY]CSWEY) [S69], for which the “% Binding pdFVIII” value amounted to 7.1 ± 0.7%.

As to YHSWE[Phg]C [S74], the “% Binding pdFVIII” value was determined as 34.9 ± 0.4%.

On to Ac-Y-C-T-W-D-Y-NH2 (Ac-YCTWDY-NH2) [S4], for which the “% Binding pdFVIII” value is 58.5 ± 2.4%.

With YHS[Bta]EYC [S78], the “% Binding pdFVIII” value is on record as 6.0 ± 0.8%.

In the case of Y-C-S-W-D-Y (YCSWDY) [S11], the “% Binding pdFVIII” value was 79.9 ± 4.0%. Also, the “% Binding Factor VIII” value under setting [2] is reported as 80%.

On to Y-H-V-W-E-Y-C (YHVWEYC) [S76], for which the “% Binding pdFVIII” value was determined as 26.6 ± 1.3%.

In the case of Y-C-T-W-D-Y-NH2 (YCTWDY-NH2) [S3], the “% Binding pdFVIII” value turned out to be 42.3 ± 4.3%.

For the substance y-d-w-t-c-y [S13], the “% Binding pdFVIII” value worked out at 53.8 ± 0.5%.

For Y-Y-S-W-E-Y-C (YYSWEYC) [S68], the “% Binding pdFVIII” value stood at 54.3 ± 2.1%.

Turning to S-Phe(3,4-Cl)-E-Bpa-C [S67], the “% Binding pdFVIII” value is given as 47.7 ± 0.0%.

For the substance Y-W-E-Y-C [S79], the “% Binding pdFVIII” value worked out at 47.7 ± 0.45%.

On to y-e-w-s-c-y [S8], for which the “% Binding pdFVIII” value is given as 69.4 ± 6.6%. The “% Binding Factor VIII” value under setting [2] came to 69%.

Take S-Bpa-E-Phe(4-Cl)-C [S60]: the “% Binding pdFVIII” value is reported as 33.9 ± 3.2%.

Take Y-C-S-W-E-Y (YCSWEY) [S7]: the “% Binding pdFVIII” value stood at 64.1 ± 3.2%. In addition, under setting [2], the “% Binding Factor VIII” value stood at 64%.

Consider S-Bpa-E-(2-Nal)-C [S58], for which the “% Binding pdFVIII” value stood at 42.0 ± 5.3%.

On to Y-C-A-W-D-Y (YCAWDY) [S16], for which the “% Binding pdFVIII” value stood at 72.0 ± 15.5%. The “% Binding Factor VIII” value under setting [2] amounted to 72%.

Take Ac-Y-C-S-W-E-Y-NH2 (Ac-YCSWEY-NH2) [S2]: the “% Binding pdFVIII” value amounted to 59.2 ± 4.6%.

Regarding Y-H-S-Phe(3,4-Cl)-E-Y-C [S77], the “% Binding pdFVIII” value is given as 34.4 ± 3.2%.

Consider Y-C-V-W-D-Y (YCVWDY) [S18], for which the “% Binding pdFVIII” value is 72.0 ± 1.2%. Further, the “% Binding Factor VIII” value under setting [2] is reported as 72%.

Y-C-T-W-D-Y (YCTWDY) [S12]: the “% Binding pdFVIII” value was determined as 74.2 ± 4.2%. Moreover, the “% Binding Factor VIII” value under setting [2] is on record as 74%.

Turning to YCS[1Nal]EY [S80], the “% Binding pdFVIII” value was 35.3 ± 3.0%.

On to y-d-w-a-c-y [S17], for which the “% Binding pdFVIII” value came to 75.1 ± 0.6%. Also, the “% Binding Factor VIII” value under setting [2] is reported as 75%.

In the case of Ac-Y-H-S-W-E-Y-C (Ac-YHSWEYC) [S32], the “% Binding pdFVIII” value was found to be 62.2 ± 4.4%. Further, the “% Binding Factor VIII” value under setting [1] was 62%.

In the case of Y-C-(N-Me)S-W-E-Y [S24], the “% Binding pdFVIII” value was 14.4 ± 0.4%.

Take YH[Abu]WDYC [S39]: the “% Binding pdFVIII” value came to 46.4 ± 0.8%.

Take S-Bpa-E-Phg-C [S72]: the “% Binding pdFVIII” value was 41.3 ± 1.4%.

Consider S-Bpa-E-(1-Nal)-C [S57], for which the “% Binding pdFVIII” value is 35.4 ± 6.6%.
